Consider 5 molecules from ChEMBL document CHEMBL1201862, “PubChem BioAssay data set” (2004).

Each structure is given as a SMILES string. Active and inactive are the calls of the source. A value given as a limit tells only on which side of the number the result lay.

Assay [1] relates to HEK293. As to the kind of experiment: inhibitors of LMP1-driven NF-kB reporter, dose response, cell-based, HEK293, luciferase, cherry-pick (AID 588343). It is filed as functional. To be noted: Homo sapiens.
Assay [2] addresses Latent membrane protein 1 (Human herpesvirus 4 (strain B95-8), UniProt P03230). As to the kind of experiment: TES1-eGFP NF-kB reporter inhibition versus Tet-On dsRED, dose response, selectivity assay for LMP1 NF-kB inhibitor project, imaging, HEK293T, dual-color eGFP/dsRED, cherry-picks (AID 588398). It is filed as functional, cell-based.
Assay [3] concerns the target Photoreceptor-specific nuclear receptor (Homo sapiens, UniProt Q9Y5X4). The class given is functional, cell-based.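 Note: CHO-S cells with Gal4-NCOR and VP16-NR2E3 two-hybrid luciferase reporter.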
A short description of assay [4]: Luminescence Cell-Based Dose Response HTS to Identify Activators of Luciferase Translation or Activity in H4 […] Cells. [Related pubchem assays: 1829 (Project Summary), 1814 (Primary HTS)]. The class given is functional.
Assay [5] relates to H4. As to the kind of experiment: Luminescence Cell-Based Dose Response HTS to Identify Activators of 5'UTR Stem-Loop Driven Prion Protein mRNA Translation in H4 Neuroglioblastoma Cells. [Related pubchem assays: 1829 (Project Summary), 1814 (Primary HTS)]. It is filed as functional. The conditions noted are these: Homo sapiens.
Assay [6] concerns the target Multidrug resistance protein CDR1 (Candida albicans, UniProt P43071). As to the kind of experiment: CaCDR1 efflux pump inhibitors in yeast, dose response, S. cerevisiae AD1-8u, singleplex, Cherry Pick1 hits (AID 588606). The class given is functional.
The test system of assay [7] is HEK293. In words: NOD1 signaling inhibitors, primary screen, cell-based, luminescence, uHTS (AID 1578). The class given is functional. The conditions noted are these: Homo sapiens.
In assay [8] the test system is Streptococcus sp. 'group A'. In words: growth inhibition of control SK(-) GAS strain, dose response, counter-screen for streptokinase expression inhibitor project, luminescence, kanamycin, BacTiterGlo, confirmation (AID 1900). It is filed as functional, organism-based.
For assay [9], the system named is BJ. In words: cytotoxicity toward BJ-TERT fibroblasts, dose response, cell-based, RAS-independent, luminescence (AID 1933). The class given is functional. To be noted: Homo sapiens.
Assay [10] relates to HEK293. As to the kind of experiment: cells. It is filed as functional, cell-based. To be noted: Homo sapiens.
The target in assay [11] is Beta-galactosidase (Escherichia coli, UniProt Q8VNN2). As to the kind of experiment: PubChem AID 485352. The class given is functional.
Chain of Beta-galactosidase (Q8VNN2 whole entry): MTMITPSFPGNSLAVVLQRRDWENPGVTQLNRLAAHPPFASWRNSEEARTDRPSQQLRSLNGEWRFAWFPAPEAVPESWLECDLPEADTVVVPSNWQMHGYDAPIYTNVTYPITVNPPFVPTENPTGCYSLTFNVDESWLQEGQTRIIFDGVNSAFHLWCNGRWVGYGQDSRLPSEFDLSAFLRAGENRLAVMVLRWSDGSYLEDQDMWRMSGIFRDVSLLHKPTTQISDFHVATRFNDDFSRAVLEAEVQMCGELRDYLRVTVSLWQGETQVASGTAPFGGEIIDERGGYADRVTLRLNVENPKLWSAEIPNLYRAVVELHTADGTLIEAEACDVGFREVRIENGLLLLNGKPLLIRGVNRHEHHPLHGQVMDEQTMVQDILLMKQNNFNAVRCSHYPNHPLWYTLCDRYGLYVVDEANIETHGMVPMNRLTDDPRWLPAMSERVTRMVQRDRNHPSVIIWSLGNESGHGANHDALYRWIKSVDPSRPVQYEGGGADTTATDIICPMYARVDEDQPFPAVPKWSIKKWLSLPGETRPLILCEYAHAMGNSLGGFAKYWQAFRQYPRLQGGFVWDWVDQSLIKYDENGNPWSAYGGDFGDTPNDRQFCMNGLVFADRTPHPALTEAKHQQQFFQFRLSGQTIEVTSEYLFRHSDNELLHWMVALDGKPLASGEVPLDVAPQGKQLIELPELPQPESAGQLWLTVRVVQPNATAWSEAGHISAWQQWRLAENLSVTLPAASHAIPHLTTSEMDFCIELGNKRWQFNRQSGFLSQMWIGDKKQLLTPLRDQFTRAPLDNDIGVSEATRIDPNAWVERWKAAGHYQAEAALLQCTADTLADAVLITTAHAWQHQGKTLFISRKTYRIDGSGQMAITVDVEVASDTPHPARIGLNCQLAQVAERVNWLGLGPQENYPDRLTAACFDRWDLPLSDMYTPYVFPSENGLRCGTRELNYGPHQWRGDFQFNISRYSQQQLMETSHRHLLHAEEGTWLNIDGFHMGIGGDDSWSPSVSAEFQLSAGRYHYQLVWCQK
Assay [12] concerns Vero. As to the kind of experiment: host cell cytotoxicity of antiviral hits, dose response, cytotoxicity control for West Nile virus antiviral project, secondary assay (AID 1650). The class given is functional. The conditions noted are these: Chlorocebus sabaeus.
The target of assay [13] is T1, Streptokinase A (Streptococcus pyogenes serotype M1, UniProt P10520).
T1 sequence (P10520 whole entry): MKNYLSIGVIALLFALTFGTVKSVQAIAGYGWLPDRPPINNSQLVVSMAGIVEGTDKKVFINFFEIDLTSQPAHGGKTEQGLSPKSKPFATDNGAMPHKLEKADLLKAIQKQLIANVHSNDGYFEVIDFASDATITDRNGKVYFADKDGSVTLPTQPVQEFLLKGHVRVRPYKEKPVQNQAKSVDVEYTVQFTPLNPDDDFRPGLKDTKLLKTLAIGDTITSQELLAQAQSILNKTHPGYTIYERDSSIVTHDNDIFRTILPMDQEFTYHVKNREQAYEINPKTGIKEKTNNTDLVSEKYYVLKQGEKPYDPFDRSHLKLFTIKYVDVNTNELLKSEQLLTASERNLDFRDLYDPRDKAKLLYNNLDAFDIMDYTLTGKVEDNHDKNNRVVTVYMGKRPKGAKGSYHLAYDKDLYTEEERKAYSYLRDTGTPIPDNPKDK
As to the kind of experiment: S. pyogenes streptokinase expression inhibitors, potency, dose response, plasminogen activation absorbance, OD405 (AID 1914).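 Note: secreted streptokinase activity via plasminogen activation per viability signal from cell pellet.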 It is filed as functional, Streptococcus pyogenes M1 GAS.

Assay [14] has as its system BJ. In words: cells. The class given is functional, cell-based. The conditions noted are these: Homo sapiens.
For assay [15], the system named is HEK293. As to the kind of experiment: cells. The class given is functional, cell-based. The conditions noted are these: Homo sapiens. This is another data set of the same source.
Assay [16] deals with Nucleotide-binding oligomerization domain-containing protein 2 (Homo sapiens, UniProt Q9HC29). As to the kind of experiment: NOD2 signaling inhibitors, cell-based, luminescence, uHTS, HEK293 (AID 1566). It is filed as functional.
Chain of Nucleotide-binding oligomerization domain-containing protein 2 (Q9HC29 whole entry, the tested form may be a part): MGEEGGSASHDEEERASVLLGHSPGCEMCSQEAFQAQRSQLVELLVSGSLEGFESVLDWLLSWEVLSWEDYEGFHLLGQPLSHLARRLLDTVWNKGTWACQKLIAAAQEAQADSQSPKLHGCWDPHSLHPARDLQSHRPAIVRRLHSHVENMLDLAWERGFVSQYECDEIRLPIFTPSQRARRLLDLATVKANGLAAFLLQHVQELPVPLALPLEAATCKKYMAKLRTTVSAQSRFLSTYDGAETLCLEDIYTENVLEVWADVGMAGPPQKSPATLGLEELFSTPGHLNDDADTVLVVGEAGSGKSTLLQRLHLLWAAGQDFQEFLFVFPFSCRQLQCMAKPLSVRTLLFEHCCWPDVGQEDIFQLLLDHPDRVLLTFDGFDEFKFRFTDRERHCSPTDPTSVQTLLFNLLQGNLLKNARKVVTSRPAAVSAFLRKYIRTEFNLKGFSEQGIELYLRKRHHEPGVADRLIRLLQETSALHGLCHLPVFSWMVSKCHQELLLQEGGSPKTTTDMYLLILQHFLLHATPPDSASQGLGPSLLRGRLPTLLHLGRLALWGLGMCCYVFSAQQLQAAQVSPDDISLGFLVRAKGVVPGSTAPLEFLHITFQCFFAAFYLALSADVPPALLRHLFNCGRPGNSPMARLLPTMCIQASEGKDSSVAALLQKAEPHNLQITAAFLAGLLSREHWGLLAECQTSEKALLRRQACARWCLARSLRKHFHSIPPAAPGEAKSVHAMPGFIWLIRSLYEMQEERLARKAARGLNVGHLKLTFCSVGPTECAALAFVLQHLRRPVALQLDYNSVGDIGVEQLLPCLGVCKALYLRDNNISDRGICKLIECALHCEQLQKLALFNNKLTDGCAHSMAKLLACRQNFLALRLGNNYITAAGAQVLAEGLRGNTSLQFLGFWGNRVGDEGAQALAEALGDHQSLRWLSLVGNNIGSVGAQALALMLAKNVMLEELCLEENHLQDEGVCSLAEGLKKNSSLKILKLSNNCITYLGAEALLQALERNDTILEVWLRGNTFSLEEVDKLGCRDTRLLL
For assay [17], the system named is HEK293. As to the kind of experiment: NOD2 signaling inhibitors in MDP-stimulated cells, cell-based, uHTS, luminescence (AID 2001). It is filed as functional. To be noted: Homo sapiens.
Assay [18] has as its system HEK293. As to the kind of experiment: cells. The conditions noted are these: Homo sapiens. The class given is functional, cell-based. This is another data set of the same source.
A short description of assay [19]: Luminescence-based dose response cell-based high throughput screening assay for cytotoxic compounds using the IEC-6 intestinal epithelial cell line. [Related pubchem assays: 1858 (Summary AID.), 1825 (Counterscreen.), 1907 (Confirmation screen.)]. It is filed as functional. A general note: Counterscreens check selectivity or assay interference.
In assay [20] the target is Type-1 angiotensin II receptor (Homo sapiens, UniProt P30556). As to the kind of experiment: AT1 receptor antagonists, dose response, selectivity assay for APJ receptor antagonist project, cell-based, uHTS hits (AID 463214).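 Note: antagonist potency against angiotensin II stimulated AT1 response.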 The class given is functional.
Assay [21] deals with BJ. In words: cytotoxicity toward BJ-TERT-LT-ST fibroblasts, dose response, cell-based, RAS-independent, luminescence (AID 1935).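 Note: BJ fibroblasts immortalized with TERT plus LT and ST oncogenes.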 The class given is functional. The conditions noted are these: Homo sapiens.
Assay [22] in a line: cytotoxicity toward DRD oncogenic fibroblasts, dose response, cell-based, non-viral oncogenic, luminescence (AID 1934). The class given is functional. To be noted: Homo sapiens.
In assay [23] the test system is Streptococcus. As to the kind of experiment: Group A Streptococcus viability loss, dose response, counter-screen for streptokinase expression inhibitor project, luminescence, BacTiterGlo (AID 1915).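 Note: potency for reduction of bacterial viability or growth.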 The class given is functional, organism-based.
Assay [24] addresses Glucose-6-phosphate 1-dehydrogenase (Homo sapiens, UniProt P11413). In words: human G6PD enzyme inhibitors, dose response, selectivity assay for P. falciparum G6PD inhibitor project, biochemical, fluorescence (AID 504792). The class given is functional.
In assay [25] the test system is HEK293. As to the kind of experiment: cytotoxicity in HEK293T NF-kB-Luc cells, SAR follow-up, cytotoxicity control for NF-kB activator project, cell-based, resazurin fluorescence (AID 493251). The class given is functional. To be noted: Homo sapiens. In general terms: Resazurin is reduced to fluorescent resorufin, in cell work by metabolically active cells.
For assay [26], the system named is Jurkat. In words: SAR Analysis of small molecule inhibitors of both B-cell and T-cell specific antigen receptor-induced NF-kB activation in a Jurkat cell line using a luminescence assay. [Related pubchem assays (depositor defined):AID435003, AID435022, AID465, AID489029]. The class given is functional, cell-based. The conditions noted are these: Homo sapiens.

Assay [27] relates to BJ. As to the kind of experiment: cytotoxicity toward Ras-transformed BJeLR fibroblasts, dose response, cell-based, alamar blue fluorescence, cherrypicked samples (AID 2631).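 Note: confirmatory dose-response assay in RAS-dependent BJ fibroblasts engineered with TERT, LT and ST, with cytotoxicity read by fluorescence.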 The class given is functional. To be noted: Homo sapiens.
In assay [28] the test system is HEK293. As to the kind of experiment: SAR Analysis of small molecule inhibitors of both B-cell and T-cell specific antigen receptor-induced NF-kB activation in a HEK-293T cell line using a luminescence assay. [Related pubchem assays (depositor defined):AID435003, AID435022, AID465, AID489019, AID489029]. To be noted: Homo sapiens. It is filed as functional, cell-based.

Assay [29] addresses Paired box protein Pax-8 (Homo sapiens, UniProt Q06710). In words: inhibitors of PAX8-driven TPO luciferase reporter, dose response, RMG-I cells, cherry-pick (AID 687027).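 Note: luciferase reporter driven by Pax8 target thyroperoxidase promoter measured by SteadyGlo luminescence.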 The class given is functional, cell-based.
Assay [30] can be described thus: PAX2 cell-based inhibition, dose response, selectivity assay for PAX8 inhibitor project, plate reader, dry powder samples (AID 743048).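 Note: HEK293 cells carrying a WT1 promoter luciferase reporter driven by expressed Pax2; potency is for inhibition of Pax2 driven reporter signal.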 It is filed as functional.
Assay [31] can be described thus: NIH:OVCAR-3 ovarian cancer cell cytotoxicity, dose response, PAX8 inhibitor project, plate reader, dry powder samples (AID 743044). It is filed as functional, cell-based.
The nature of assay [32]: PAX5 activity inhibitors, dose response, selectivity assay for PAX8 inhibitor project, cell-based, plate reader, dry powder samples (AID 743047).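 Note: HEK293 cells carrying a Pax5 driven CD19 promoter luciferase reporter; potency of inhibitors that lower reporter luminescence.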 It is filed as functional.
Assay [33] is described as follows: IGROV1 ovarian cancer cell cytotoxicity, dose response, PAX8 inhibitor project, plate reader, dry powder samples (AID 743043). The conditions noted are these: IGROV-1. It is filed as functional, cell-based.
Assay [34] in a line: cytotoxicity in OVCAR4 cells, dose response, cytotoxicity control for PAX8 inhibitor project, cell-based, plate reader, dry powder, SA11 (AID 743150). It is filed as functional. To be noted: OVCAR-4.
Assay [35] in a line: cytotoxicity in COV434 cells, dose response, cytotoxicity control for PAX8 inhibitor project, cell-based, plate reader, dry powder, SA7 (AID 743145). It is filed as functional.
The nature of assay [36]: cytotoxicity in OV-90 ovarian cancer cells, dose response, PAX8 inhibitor project, cell-based, plate reader, dry powder, SA8 (AID 743149). It is filed as functional.
Assay [37] can be described thus: cytotoxicity dependent on PAX8, dose response, cell-based, plate reader, dry powder (AID 743049). It is filed as functional.
Assay [38] deals with Sphingosine 1-phosphate receptor 1 (Homo sapiens, UniProt P21453). As to the kind of experiment: Late-stage fluorescence-based dose-response cell-based counterscreen assay to identify agonists of the Sphingosine 1-Phosphate Receptor 4 (S1P4): Sphingosine 1-Phosphate Receptor 1 (S1P1) agonist assay Set 2. The class given is functional.
Chain of Sphingosine 1-phosphate receptor 1 (P21453 whole entry): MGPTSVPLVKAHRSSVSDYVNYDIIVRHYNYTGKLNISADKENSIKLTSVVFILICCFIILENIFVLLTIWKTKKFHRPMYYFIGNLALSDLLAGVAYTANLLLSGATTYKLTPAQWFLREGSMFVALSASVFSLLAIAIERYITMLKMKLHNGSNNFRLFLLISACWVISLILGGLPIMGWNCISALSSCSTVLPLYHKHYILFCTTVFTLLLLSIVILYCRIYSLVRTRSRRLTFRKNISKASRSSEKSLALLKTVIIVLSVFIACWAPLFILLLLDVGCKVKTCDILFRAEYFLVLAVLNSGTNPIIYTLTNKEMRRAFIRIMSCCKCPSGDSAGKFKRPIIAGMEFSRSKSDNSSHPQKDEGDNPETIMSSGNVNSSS
The target of assay [39] is Sphingosine 1-phosphate receptor 5 (Homo sapiens, UniProt Q9H228). As to the kind of experiment: S1P5 receptor agonists, human, late-stage follow-up, counter-screen for S1P4 agonist project, cell-based, fluorescence, set 2 (AID 504867). It is filed as functional.
In assay [40] the target is Sphingosine 1-phosphate receptor 3 (Homo sapiens, UniProt Q99500). In words: Late-stage fluorescence-based dose-response cell-based counterscreen assay to identify agonists of the Sphingosine 1-Phosphate Receptor 4 (S1P4): Sphingosine 1-Phosphate Receptor 3 (S1P3) agonist assay Set 2. It is filed as functional.
Chain of Sphingosine 1-phosphate receptor 3 (Q99500 whole entry): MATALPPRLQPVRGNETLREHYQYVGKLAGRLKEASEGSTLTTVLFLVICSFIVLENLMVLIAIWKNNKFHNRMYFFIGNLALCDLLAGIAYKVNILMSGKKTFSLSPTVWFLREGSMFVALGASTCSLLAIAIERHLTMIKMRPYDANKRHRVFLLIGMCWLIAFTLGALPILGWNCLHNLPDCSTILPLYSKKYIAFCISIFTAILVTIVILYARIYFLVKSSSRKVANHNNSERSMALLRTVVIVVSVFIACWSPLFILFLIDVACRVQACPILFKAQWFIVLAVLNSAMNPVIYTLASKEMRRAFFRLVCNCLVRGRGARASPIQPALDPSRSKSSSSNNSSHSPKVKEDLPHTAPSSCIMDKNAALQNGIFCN
In assay [41] the target is Sphingosine 1-phosphate receptor 2 (Homo sapiens, UniProt O95136). In words: S1P2 receptor agonists, human, late-stage follow-up, counter-screen for S1P4 agonist project, cell-based, fluorescence, set 2 (AID 504873). It is filed as functional.
Chain of Sphingosine 1-phosphate receptor 2 (O95136 whole entry): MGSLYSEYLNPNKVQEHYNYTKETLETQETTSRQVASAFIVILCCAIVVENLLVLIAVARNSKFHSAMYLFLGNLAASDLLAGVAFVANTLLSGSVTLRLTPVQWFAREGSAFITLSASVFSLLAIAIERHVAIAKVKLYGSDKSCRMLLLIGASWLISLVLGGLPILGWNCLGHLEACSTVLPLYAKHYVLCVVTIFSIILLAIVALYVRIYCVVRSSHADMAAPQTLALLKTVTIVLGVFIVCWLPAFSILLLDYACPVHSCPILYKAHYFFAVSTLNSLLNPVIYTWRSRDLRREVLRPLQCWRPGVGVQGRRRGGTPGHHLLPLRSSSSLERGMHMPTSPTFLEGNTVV
For assay [42], the target named is Botulinum neurotoxin type A (Clostridium botulinum (strain Hall / ATCC 3502 / NCTC 13319 / Type A), UniProt P0DPI1). As to the kind of experiment: High-throughput multiplex microsphere dose response for inhibitors of toxin protease, specifically Botulinum neurotoxin light chain A protease, compounds from Cherry Pick 02. It is filed as functional. To be noted: read-out: EC50_MICROM.
Chain of Botulinum neurotoxin type A (P0DPI1 2-448 limits assumed): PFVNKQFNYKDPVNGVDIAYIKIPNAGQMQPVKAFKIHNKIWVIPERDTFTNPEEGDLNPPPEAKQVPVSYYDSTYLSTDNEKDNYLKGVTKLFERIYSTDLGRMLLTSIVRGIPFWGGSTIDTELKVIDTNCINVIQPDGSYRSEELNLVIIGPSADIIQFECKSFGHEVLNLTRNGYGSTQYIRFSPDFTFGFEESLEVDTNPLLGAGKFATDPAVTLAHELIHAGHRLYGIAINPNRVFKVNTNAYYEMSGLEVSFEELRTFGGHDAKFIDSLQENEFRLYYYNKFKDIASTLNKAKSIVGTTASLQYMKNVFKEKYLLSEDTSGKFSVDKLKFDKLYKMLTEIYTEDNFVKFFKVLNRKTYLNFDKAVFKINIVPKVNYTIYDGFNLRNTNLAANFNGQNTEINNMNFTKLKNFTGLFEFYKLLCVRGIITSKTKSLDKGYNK

Chain of Photoreceptor-specific nuclear receptor (Q9Y5X4 whole entry, the tested form may be a part): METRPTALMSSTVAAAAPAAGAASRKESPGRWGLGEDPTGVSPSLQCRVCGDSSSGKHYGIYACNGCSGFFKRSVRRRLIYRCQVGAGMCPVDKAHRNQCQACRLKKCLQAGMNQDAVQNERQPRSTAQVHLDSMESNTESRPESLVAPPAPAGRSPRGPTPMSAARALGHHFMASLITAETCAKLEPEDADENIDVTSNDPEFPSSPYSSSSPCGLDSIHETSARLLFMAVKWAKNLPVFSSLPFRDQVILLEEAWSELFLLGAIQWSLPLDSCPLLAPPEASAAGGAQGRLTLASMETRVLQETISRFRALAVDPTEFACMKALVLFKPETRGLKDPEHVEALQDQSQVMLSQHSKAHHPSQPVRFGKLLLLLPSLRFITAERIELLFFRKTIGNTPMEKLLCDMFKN
Chain of Paired box protein Pax-8 (Q06710 whole entry): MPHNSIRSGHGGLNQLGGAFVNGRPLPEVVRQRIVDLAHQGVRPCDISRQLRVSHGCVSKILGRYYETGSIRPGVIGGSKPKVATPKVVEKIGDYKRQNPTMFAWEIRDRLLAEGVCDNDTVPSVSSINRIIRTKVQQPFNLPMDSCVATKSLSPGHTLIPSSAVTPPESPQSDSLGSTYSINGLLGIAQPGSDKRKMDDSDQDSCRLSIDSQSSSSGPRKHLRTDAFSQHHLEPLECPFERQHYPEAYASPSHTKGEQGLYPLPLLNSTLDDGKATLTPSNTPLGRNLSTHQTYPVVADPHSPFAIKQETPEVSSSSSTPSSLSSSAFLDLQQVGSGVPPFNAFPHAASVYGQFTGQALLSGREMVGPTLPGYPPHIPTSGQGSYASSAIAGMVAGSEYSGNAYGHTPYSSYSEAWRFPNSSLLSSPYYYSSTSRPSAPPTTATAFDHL
Chain of Glucose-6-phosphate 1-dehydrogenase (P11413 whole entry): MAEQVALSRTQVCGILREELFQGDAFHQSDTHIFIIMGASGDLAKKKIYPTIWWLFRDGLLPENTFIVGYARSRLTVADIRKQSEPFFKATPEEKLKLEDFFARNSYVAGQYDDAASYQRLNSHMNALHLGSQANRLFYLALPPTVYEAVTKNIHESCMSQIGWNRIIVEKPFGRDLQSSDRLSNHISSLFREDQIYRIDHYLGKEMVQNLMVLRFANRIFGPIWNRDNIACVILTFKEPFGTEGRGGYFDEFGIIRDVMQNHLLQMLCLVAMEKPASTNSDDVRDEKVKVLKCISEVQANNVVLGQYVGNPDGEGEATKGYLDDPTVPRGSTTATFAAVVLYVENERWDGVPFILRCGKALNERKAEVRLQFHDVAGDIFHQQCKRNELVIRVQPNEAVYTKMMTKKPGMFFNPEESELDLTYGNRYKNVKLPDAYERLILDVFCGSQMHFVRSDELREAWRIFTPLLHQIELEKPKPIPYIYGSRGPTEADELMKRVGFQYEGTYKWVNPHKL

In the case of `S=C(NN=Cc1ccccn1)Nc1ccccn1`, the AC50 – broadly, the concentration at which the activity in the assay is half-maximal – in assay [1] was 21.5 µM (active); in assay [2], 10.7 µM (active). The IC50 – broadly, the concentration that gives 50% inhibition – in assay [3] is 7.61 µM (active).

With `O=C(/C=C/c1ccccc1Cl)NCCc1ccccc1`, the EC50 in assay [4] is 4.27 µM (active); in [5], > 120 µM (not active); in [6], 0.514 µM (active).

For `O=S(=O)(Nc1cccc2cccnc12)c1ccccc1`, the EC50 in assay [7] was > 20 µM (inactive); in [8], 3.27 µM (active); in [9] it was 28.1 µM (active); in assay [11], > 40 µM (inactive); in assay [13], > 150 µM (not active); in assay [14], 17.2 µM (active). For the same molecule, the EC50 is > 20 µM (inactive) in assay [16]; > 150 µM (not active) in assay [21]; 34 µM (active) in assay [22]; 12.3 µM (active) in assay [23]; 0.572 µM (active) in assay [27]. Moreover, the IC50 in assay [10] is 2.74 µM (active); in assay [15], 11.7 µM (active); in assay [17], 1.83 µM (inactive); in assay [18], > 20 µM (inactive); in assay [19] it was 2.08 µM (active); in assay [20] it was 2.75 µM (active). Further, the IC50 in assay [24] was 51.9 µM (inactive); in assay [25], > 80 µM (inactive); in assay [26], 0.89 µM (active); in [28], 44.8 µM (inactive). Also, in assay [12], the half-maximal cytotoxic concentration (CC50) (commonly the concentration at which the toxic effect on the cells reaches its halfway point) was 7.94 µM (active). In addition, the AC50 in assay [29] is 6.46 µM (active); in [30], 32.4 µM (active); in assay [31] it was 38.9 µM (active); in assay [32] it was 33.2 µM (active); in assay [33] it was 26.3 µM (active); in assay [34], 21.4 µM (active). In addition, the AC50 in assay [35] was 19.3 µM (active); in [36], 15.3 µM (active); in assay [37] it was 20.7 µM (active).

Regarding `CC/N=C1/S/C(=C/c2cc(C)n(Cc3ccccc3)c2C)C(=O)N1CC`, the EC50 in assay [38] is 0.185 µM (active); in assay [39], 0.0631 µM (active); in [40], 12.9 µM (inactive); in assay [41], 3.28 µM (active).

`Cc1onc(-c2ccccc2Cl)c1C(=O)NCc1ccc2c(c1)cc(C)n2C`: in assay [42], the EC50 is 4.2 µM (active).
